From EPA's ToxRefDB 2

Columns and labels:
[1] = tested on: rat; conditions: Sub-acute repeat dose toxicity; Oral; Gavage/Intubation; dose end: 7 day; group: systemic; systemic / hematology / erythrocyte (rbc) count differential / erythrocyte (rbc) + systemic / hematology / hematocrit (hct) / hematocrit (…
[2] = tested on: rat; conditions: Sub-acute repeat dose toxicity, sprague dawley, Oral, Gavage/Intubation, dose end: 10 day, group: systemic
[3] = tested on: dog; conditions: Subchronic oral toxicity in nonrodent, beagle, Gavage/Intubation, dose end: 91 day, group: systemic
[4] = tested on: rat; conditions: Subchronic oral toxicity in rodents, sprague dawley, Gavage/Intubation, dose end: 93 day, group: systemic
[5] = tested on: rat; conditions: Sub-acute repeat dose toxicity, sprague dawley, Oral, Gavage/Intubation, dose end: 14 day, group: systemic
[6] = tested on: dog; conditions: Sub-acute repeat dose toxicity; beagle; Oral; Gavage/Intubation; dose end: 14 day; group: systemic; systemic / clinical chemistry / [other] / [other]
[7] = tested on: rabbit; conditions: Prenatal developmental toxicity study; new zealand white; Oral; Gavage/Intubation; dose end: 19 GD; group: maternal; systemic / in life observation / body weight / body weight + systemic / in life observation / body weight / body weight gain + systemic / in…
[8] = tested on: rat; conditions: Prenatal developmental toxicity study, other, Oral, Gavage/Intubation, dose end: 17 GD
[9] = tested on: rat; conditions: Prenatal developmental toxicity study, sprague dawley, Oral, Gavage/Intubation, dose end: 17 GD
[10] = tested on: rabbit; conditions: Prenatal developmental toxicity study, new zealand white, Oral, Gavage/Intubation, dose end: 19 GD
[11] = tested on: mouse; conditions: Subchronic oral toxicity in rodents, b6c3f1, Gavage/Intubation, dose end: 13 week, group: systemic
[12] = tested on: rat; conditions: Combined chronic toxicity/carcinogenicity; fischer; Oral; Gavage/Intubation; dose end: 2 year; group: systemic; systemic / in life observation / mortality / mortality + systemic / pathology microscopic / lung / foreign body + systemic / pathology …
[13] = tested on: mouse; conditions: Carcinogenicity, b6c3f1, Oral, Gavage/Intubation, dose end: 2 year, group: systemic
[14] = tested on: rat; conditions: Subchronic oral toxicity in rodents, fischer, Gavage/Intubation, dose end: 13 week, group: systemic
[15] = systemic / in life observation / body weight / body weight gain + systemic / in life observation / food consumption / food consumption
[16] = systemic / in life observation / food consumption / food consumption
[17] = systemic / in life observation / clinical signs / abnormal feces + systemic / in life observation / clinical signs / emesis
[18] = systemic / in life observation / clinical signs / abnormal feces + systemic / in life observation / clinical signs / emesis + systemic / …
[19] = systemic / in life observation / clinical signs / [other]
[20] = systemic / in life observation / clinical signs / [other] + systemic / in life observation / clinical signs / salivation
[21] = systemic / clinical chemistry / [other] / [other] + systemic / in life observation / clinical signs / [other] + systemic / in life …
[22] = group: developmental, systemic / in life observation / body weight / fetal weight
[23] = group: maternal, systemic / in life observation / body weight / body weight + systemic / in life observation / food consumption / food consumption
[24] = group: maternal, systemic / in life observation / body weight / body weight + systemic / in life observation / food consumption / food consumption + …
[25] = group: maternal, systemic / in life observation / food consumption / food consumption
[26] = group: maternal, systemic / in life observation / food consumption / food consumption + reproductive / reproductive performance / postimplantation loss / …
[27] = group: maternal, systemic / in life observation / body weight / body weight + systemic / in life observation / food consumption / food consumption + systemic…
[28] = systemic / in life observation / body weight / body weight
[29] = systemic / in life observation / body weight / body weight + systemic / in life observation / clinical signs / unsteady gait
[30] = systemic / pathology microscopic / brain / corpora amylacea + systemic / pathology microscopic / adrenal gland / adenoma + systemic / …
[31] = systemic / in life observation / body weight / body weight + systemic / in life observation / clinical signs / labored respiration + …

## CCOc1ccc2[nH]cc(C(=O)NCc3ccccc3)c(=O)c2n1
[1]
  LEL: 240 mg/kg/day
  LOAEL: > 240 mg/kg/day
  NEL: < 240 mg/kg/day
  NOAEL: ≥ 240 mg/kg/day
[2]; [15]
  LOAEL: > 160 mg/kg/day
  NOAEL: ≥ 160 mg/kg/day
[2]; [16]
  LEL: 5 mg/kg/day
  NEL: < 5 mg/kg/day
[3]; [17]
  LEL: 1 mg/kg/day
  NEL: < 1 mg/kg/day
[3]; [18]
  LOAEL: > 80 mg/kg/day
  NOAEL: ≥ 80 mg/kg/day
[4]; [19]
  LEL: 10 mg/kg/day
  NEL: < 10 mg/kg/day
[4]; [20]
  LOAEL: > 240 mg/kg/day
  NOAEL: ≥ 240 mg/kg/day
[5]; [21]
  LOAEL: > 198 mg/kg/day
  NOAEL: ≥ 198 mg/kg/day
[5]; [19]
  LEL: 10 mg/kg/day
  NEL: < 10 mg/kg/day
[6]
  LEL: 26 mg/kg/day
  LOAEL: > 26 mg/kg/day
  NEL: 6 mg/kg/day
  NOAEL: ≥ 26 mg/kg/day

## CCCOc1sc(C(=O)N2CCC(c3cc(CN)ccc3F)CC2)c(C)c1Br.Cl [AVE8923]
[7]
  LEL: 50 mg/kg/day
  LOAEL: > 300 mg/kg/day
  NEL: < 50 mg/kg/day
  NOAEL: ≥ 300 mg/kg/day
[8]; [22]
  LEL: 100 mg/kg/day
  LOAEL: 100 mg/kg/day
  NEL: 25 mg/kg/day
  NOAEL: 25 mg/kg/day
[8]; [23]
  NEL: 25 mg/kg/day
  NOAEL: 25 mg/kg/day
[8]; [24]
  LEL: 100 mg/kg/day
  LOAEL: 100 mg/kg/day
[9]; [22]
  LEL: 75 mg/kg/day
  LOAEL: 75 mg/kg/day
  NEL: 25 mg/kg/day
  NOAEL: 25 mg/kg/day
[9]; [25]
  LEL: 75 mg/kg/day
  LOAEL: 75 mg/kg/day
[9]; [26]
  NEL: 25 mg/kg/day
  NOAEL: 25 mg/kg/day
[10]; [22]
  LEL: 200 mg/kg/day
  LOAEL: > 200 mg/kg/day
  NEL: 100 mg/kg/day
  NOAEL: ≥ 200 mg/kg/day
[10]; [27]
  LEL: 200 mg/kg/day
  LOAEL: > 200 mg/kg/day
  NEL: 100 mg/kg/day
  NOAEL: ≥ 200 mg/kg/day

## OCc1ccccc1 [Benzyl alcohol]
[11]; [28]
  LEL: 400 mg/kg/day
[11]; [29]
  LOAEL: 800 mg/kg/day
  NEL: 200 mg/kg/day
  NOAEL: 400 mg/kg/day
[12]
  LEL: 200 mg/kg/day
  LOAEL: > 400 mg/kg/day
  NEL: < 200 mg/kg/day
  NOAEL: ≥ 400 mg/kg/day
[13]; systemic / pathology microscopic / brain / corpora amylacea
  NEL: 100 mg/kg/day
[13]; [30]
  LEL: 200 mg/kg/day
  LOAEL: > 200 mg/kg/day
  NOAEL: ≥ 200 mg/kg/day
[14]; [28]
  LEL: 200 mg/kg/day
  LOAEL: 400 mg/kg/day
[14]; [31]
  NEL: 100 mg/kg/day
  NOAEL: 200 mg/kg/day
